This note sets out measurements from ChEMBL document CHEMBL1201862, “PubChem BioAssay data set” (2004).

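48-hour exposure; five concentrations; linearly interpolated endpoints. Abbreviation: GI50, concentration required for 50% inhibition of growth.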 The source made the active and inactive calls. Cut-off read from the data, not from the text of the source: active = GI50 up to about 1.1 µM and inactive = higher.

Some test systems named below: SNB-19; LOX IMVI; SK-MEL-28; COLO 205; NCI-H522; HCC 2998; MOLT-4; DMS-114; RPMI-8226; A498; K562; SK-MEL-5; SK-OV-3; OVCAR-8; IGROV-1; A549; Hs-578T; NCI/ADR-RES; SR; BT-549.
What all share (test): NCI tumour cell line growth inhibition, 48 h

With `CCOC(=O)C(Oc1ccc(OC)c2c1C(=O)CCC2)c1ccccc1` (stereo unspecified), the GI50 with SNB-19 is > 100 µM (inactive); in the experiment on LOX IMVI, > 100 µM (inactive); in the experiment on SK-MEL-28, > 100 µM (inactive); in the experiment on COLO 205 it was > 100 µM (inactive); in the experiment with NCI-H522, 94 µM (inactive); in the experiment with HCC 2998, > 100 µM (inactive). The GI50 is 33.7 µM (inactive) in the experiment with MOLT-4; 84.7 µM (inactive) in the experiment with DMS-114; 45.9 µM (inactive) in the experiment on RPMI-8226; > 100 µM (inactive) in the experiment with A498; 49.2 µM (inactive) with K562; 43.2 µM (inactive) in the experiment on SK-MEL-5. Moreover, the GI50 with SK-OV-3, in the experiment with OVCAR-8, in the experiment with IGROV-1 and in the experiment with A549 was > 100 µM (inactive) throughout.

With `C=CCC1=C2CCCCC2CCC1=O` (stereo unspecified), the GI50 in the experiment with SNB-19, in the experiment with LOX IMVI, in the experiment with SK-MEL-28, in the experiment on COLO 205, in the experiment with NCI-H522 and in the experiment with MOLT-4 was > 100 µM (inactive) in each case. Besides, the GI50 in the experiment on DMS-114, in the experiment on RPMI-8226, in the experiment on A498, in the experiment on K562, in the experiment on SK-MEL-5 and in the experiment on SK-OV-3 was > 100 µM (inactive) in each case. The GI50 in the experiment on OVCAR-8, in the experiment with IGROV-1 and in the experiment with A549 was > 100 µM (inactive) in each case.

As for `CCN(CC)CCCNc1nccc2c(C)c3c(cc12)c1cnccc1n3C`, the GI50 in the experiment with SNB-19 was 0.288 µM (active); in the experiment with LOX IMVI it was 0.0711 µM (active); in the experiment with SK-MEL-28 it was 0.403 µM (active); in the experiment on COLO 205, 0.249 µM (active); in the experiment on HCC 2998 it was 0.0401 µM (active); in the experiment on MOLT-4, < 0.01 µM (active). The GI50 in the experiment with DMS-114 is 0.0501 µM (active); with A498 it was 1.18 µM (inactive); in the experiment with K562, 0.0211 µM (active); in the experiment on SK-MEL-5 it was 0.431 µM (active); with SK-OV-3, 0.377 µM (active); with OVCAR-8, 0.0692 µM (active). For the same molecule, the GI50 with IGROV-1 was 0.4 µM (active); in the experiment on A549, 0.0526 µM (active).

For the molecule `C/C(CC(=O)Nc1cccc([N+](=O)[O-])c1)=N/NC(N)=S`, the GI50 with LOX IMVI, in the experiment with SK-MEL-28, with COLO 205, in the experiment with NCI-H522, with HCC 2998 and in the experiment on MOLT-4 was > 100 µM (inactive) throughout. Also, the GI50 with DMS-114, in the experiment with RPMI-8226, in the experiment on K562, in the experiment with SK-MEL-5, in the experiment on SK-OV-3 and with OVCAR-8 was > 100 µM (inactive) in each case. In addition, the GI50 in the experiment on IGROV-1 and with A549 was > 100 µM (inactive) each time.

Turning to `CS(=O)(=O)OCCN1CCN(C(=O)c2cccc3c(Nc4ccc(S(=O)(=O)N=C(N)N)cc4)c4ccccc4nc23)CC1`, the GI50 in the experiment with SNB-19, in the experiment with SK-MEL-28, in the experiment with COLO 205, in the experiment with HCC 2998, in the experiment on MOLT-4 and in the experiment with DMS-114 was > 100 µM (inactive) throughout. For the same molecule, the GI50 with RPMI-8226, with A498, in the experiment with K562, with SK-MEL-5, with SK-OV-3 and in the experiment on OVCAR-8 was > 100 µM (inactive) throughout. Further, the GI50 in the experiment with IGROV-1 and in the experiment with A549 was > 100 µM (inactive) throughout.

Consider `Cc1ccc(S(=O)(=O)N/N=C(\c2nc3ccc([N+](=O)[O-])cc3[nH]c2=O)C(O)c2ccc([N+](=O)[O-])cc2)cc1` (stereo unspecified), for which the GI50 with SNB-19 was > 100 µM (inactive); in the experiment with LOX IMVI, 23.8 µM (inactive); with SK-MEL-28, > 100 µM (inactive); in the experiment with COLO 205 it was > 100 µM (inactive); in the experiment with NCI-H522, 10.8 µM (inactive); in the experiment with HCC 2998, 28.2 µM (inactive). The GI50 is 29.4 µM (inactive) in the experiment with MOLT-4; 32 µM (inactive) in the experiment on DMS-114; 21.6 µM (inactive) with RPMI-8226; > 100 µM (inactive) in the experiment on A498; 29.2 µM (inactive) with K562; 73.8 µM (inactive) with SK-MEL-5. Besides, the GI50 with SK-OV-3, in the experiment on OVCAR-8, in the experiment on IGROV-1 and with A549 was > 100 µM (inactive) each time.

On to `CC(=O)NNc1nc(C)c(C(/C=C/c2ccc(/C=C/C(=N\NC(=O)c3ccncc3)c3sc(NNC(C)=O)nc3C)cc2)=N/NC(=O)c2ccncc2)s1`, for which the GI50 in the experiment with SNB-19, in the experiment with LOX IMVI, in the experiment on SK-MEL-28, in the experiment with COLO 205, in the experiment with HCC 2998 and in the experiment with MOLT-4 was > 100 µM (inactive) in each case. Besides, the GI50 in the experiment with DMS-114, with RPMI-8226, with A498, in the experiment on K562, in the experiment with SK-MEL-5 and with SK-OV-3 was > 100 µM (inactive) each time. The GI50 with OVCAR-8, with IGROV-1 and in the experiment with A549 was > 100 µM (inactive) throughout.

As to `CSCCC(C(=O)O)N(CC1(O)OCC(O)C(O)C1O)N=O` (stereo unspecified), the GI50 in the experiment on LOX IMVI, with SK-MEL-28, in the experiment with COLO 205, in the experiment on NCI-H522, with HCC 2998 and in the experiment on MOLT-4 was > 100 µM (inactive) each time. Moreover, the GI50 in the experiment on DMS-114, in the experiment on RPMI-8226, in the experiment with A498, with K562, in the experiment on SK-MEL-5 and in the experiment with SK-OV-3 was > 100 µM (inactive) each time. Besides, the GI50 in the experiment on OVCAR-8, with IGROV-1 and with A549 was > 100 µM (inactive) each time.

Turning to `CN1C(c2ccccc2)CS(=O)(=O)CS1(=O)=O` (stereo unspecified), the GI50 with SNB-19, in the experiment with LOX IMVI, in the experiment on SK-MEL-28, in the experiment with COLO 205, in the experiment on HCC 2998 and with DMS-114 was > 100 µM (inactive) throughout. The GI50 with A498, in the experiment with SK-MEL-5, with SK-OV-3, in the experiment with OVCAR-8, in the experiment with IGROV-1 and with A549 was > 100 µM (inactive) each time.

In the case of `O=C1c2ccccc2C(=O)c2cc3c(cc21)C[S+]([O-])C3`, the GI50 in the experiment on SNB-19, in the experiment on LOX IMVI, in the experiment on SK-MEL-28, in the experiment with COLO 205, in the experiment on NCI-H522 and in the experiment on HCC 2998 was > 100 µM (inactive) throughout. The GI50 in the experiment on MOLT-4, in the experiment with DMS-114, with RPMI-8226, with K562, in the experiment with SK-MEL-5 and with SK-OV-3 was > 100 µM (inactive) throughout. In addition, the GI50 in the experiment on OVCAR-8, in the experiment on IGROV-1 and in the experiment with A549 was > 100 µM (inactive) each time.

As for `CCCCCN(CCCCC)C(=O)[C@@H](CCC(=O)O)NC(=O)c1cc2ccccc2[nH]1`, the GI50 with SNB-19 is 34.9 µM (inactive); with LOX IMVI it was 59.3 µM (inactive); with SK-MEL-28, 21.4 µM (inactive); in the experiment with COLO 205 it was 30.9 µM (inactive); in the experiment with NCI-H522, 13.5 µM (inactive); in the experiment on HCC 2998 it was 34 µM (inactive). The GI50 was 21.5 µM (inactive) in the experiment with MOLT-4; 33 µM (inactive) with DMS-114; 16 µM (inactive) in the experiment with RPMI-8226; > 100 µM (inactive) in the experiment on A498; 36.5 µM (inactive) in the experiment with K562; 65.2 µM (inactive) in the experiment with SK-OV-3. Moreover, the GI50 was 52.8 µM (inactive) in the experiment on OVCAR-8, 44 µM (inactive) in the experiment with IGROV-1 and 39.3 µM (inactive) in the experiment with A549.

On to `N#CCC(=O)NC1C2CC3CC(C2)CC1C3` (stereo unspecified), for which the GI50 was 17.3 µM (inactive) in the experiment on SNB-19; 10.7 µM (inactive) with LOX IMVI; 19.1 µM (inactive) in the experiment with SK-MEL-28; 19.3 µM (inactive) in the experiment with COLO 205; 17.1 µM (inactive) in the experiment on NCI-H522; 18 µM (inactive) with HCC 2998. The GI50 is 34 µM (inactive) in the experiment with MOLT-4; 16 µM (inactive) with DMS-114; 34.6 µM (inactive) in the experiment with RPMI-8226; 16.5 µM (inactive) in the experiment with A498; 26.5 µM (inactive) in the experiment on K562; 14.6 µM (inactive) with SK-MEL-5. Also, the GI50 in the experiment with SK-OV-3 is 37.4 µM (inactive); with OVCAR-8, 17.5 µM (inactive); in the experiment with IGROV-1, 25.4 µM (inactive); with A549, 34 µM (inactive).

On to `COC(=O)C(Cc1ccccc1)NP(=O)(O)OCC1OC(n2ccc(N)nc2=O)C(O)C1O` (stereo unspecified), for which the GI50 in the experiment on Hs-578T, with SNB-19, in the experiment with LOX IMVI, in the experiment on SK-MEL-28, in the experiment with COLO 205 and in the experiment with NCI/ADR-RES was > 100 µM (inactive) in each case. The GI50 is > 100 µM (inactive) in the experiment with NCI-H522; > 100 µM (inactive) in the experiment with HCC 2998; 76 µM (inactive) in the experiment on MOLT-4; 66.1 µM (inactive) with SR; > 100 µM (inactive) with RPMI-8226; > 100 µM (inactive) with A498. In addition, the GI50 in the experiment on K562, in the experiment on SK-MEL-5, in the experiment on SK-OV-3, in the experiment on OVCAR-8, in the experiment on IGROV-1 and in the experiment with BT-549 was > 100 µM (inactive) each time. In addition, the GI50 in the experiment on A549 was > 100 µM (inactive).
